The source of these data is paper PMC8502973 (Frontiers in Physiology, 2021).

One data set has as its system V2R. The following applies: V2R agonist; no reference given; cited from earlier work. An excerpt:
Whereas the overall profile of ASK1476 met the primary aim of our studies including the enhanced stability of the OXTR activator in vivo, the molecule did display a significant activation of the V2R. As mentioned above, the receptor plays the key role in both urine and water homeostasis.

Data set [1] in a line: Excipient (HP-CD) effects on food intake and body weight. The class given is in vivo. The conditions noted are these: 2% HP-CD/saline, 1 mL/kg, 7 days, lean male rats n = 5. The protocol:
As the excipient used to place ASK1476 in solution, HP-CD, was used in excess, a preliminary experiment was run to examine whether it produces any anorectic effects independently. Testing consisted of a 7-day normal saline treated phase followed by a 7-day 2% HP-CD/saline solution (dose 1 mL/kg) treated phase in lean male rats (n = 5; at start of HP-CD treatment: mean 410 g, SD 26 g). […] Food intake was continuously recorded using AccuScan DietMax (currently OmniTech Electronics, Inc., Diet System) cages and data were binned into 15-min intervals for analysis. The start of the 24-h food intake period aligned to the lights turning off in the animal room. Body weight was recorded, and treatment injections were administered just prior to the start of the dark cycle.

Take desmopressin: the “side effects in the clinical setting” value in the data set on V2R was “hyponatremia and renal water retention”. As for Hydroxypropyl-β-cyclodextrin [HP-CD], the “7-day food intake, difference vs saline” value in data set [1] (95% CU −0.19 to 0.71, p = 0.187) is listed as 0.26 g. Moreover, the “body weight gain, difference vs saline” value in data set [1] (95% CU −0.99 to 0.95, p = 0.950) is -0.02 g.
